Measurements reported in PMC3034713, “Targeting Vascular NADPH Oxidase 1 Blocks Tumor Angiogenesis through a PPARα Mediated Mechanism” (PLoS ONE, 2011).

Columns and labels:
MLEC [1] = experiment: Endothelial cell sprouting assay (tube-like structure formation, 3D culture); assay type: cell-based, mouse; conditions: NOX1-deficient MLEC, 10 µM, compared to untreated NOX1-deficient cells
Protocol: Sprouting assay was performed as described previously. Briefly, endothelial cells were plated in 96 well plates at 8,000 cells per well in a 3D fibrin gel. Above the gel, 10% FCS containing DMEM was complemented with 200 KIU/ml of Aprotinin (Sigma). Length of branches was evaluated using the Metamorph program. Results are expressed in mm of skeleton length/number of cells.

[2] = tested on: NOX1-silenced endothelial cell lines; experiment: p65 NF-κB nuclear translocation after VEGF or bFGF stimulation (Western blot, immunofluorescence); assay type: cell-based, mouse; conditions: 10 µM before stimulation with VEGF and bFGF
Protocol: After stimulation, nuclear and cytoplasmic proteins of endothelial cells were extracted according to Tauzin et al.. Briefly, cells were incubated in TKM buffer (50 mM Tris-HCl pH 7.4, 25 mM KCl, 5 mM MgCl2 and 1 mM EGTA) containing 1% Triton and protease inhibitor cocktail CLAP [10 µg/ml chymostatin, leupeptin, antipain and pepstatin A (Sigma) for 30 minutes on ice, sonicated for 2 minutes and centrifuged at 5000 g for 30 minutes. The pellet and the supernatant were separated and solubilized in sample buffer.
Cells were stimulated for the indicated time and then lysed in TNT buffer (50 mM Tris, 150 mM NaCl, 0.5% Triton X-100) complemented with protease inhibitor cocktail CLAP and phosphatase inhibitor cocktail [25 mM NaF, 20 mM b-Glycerophosphate, 5 mM HEPES, 2.5 mM EDTA, 0.5 mM Orthovanadate]. Membranes were blocked in PBS containing 0.5% BSA and hybridized with different antibodies.

MLEC [3] = experiment: Wound healing assay (endothelial cell migration); assay type: cell-based, mouse; conditions: NOX1-deficient MLEC, 10 µM, compared to untreated NOX1-deficient cells
Protocol: Wound healing assay was performed as described previously. Briefly, endothelial cells were plated in Matrigel (Becton Dickinson) precoated 96 wells plates. One day after plating the cell monolayer was scratched to make a regular wound. Cells were allowed to migrate overnight. Migration area was then measured and calculated using the Metamorph program (MDS Analytical Technologies).

tEnd siRNA NOX1 = experiment: Quantitative real-time PCR of target genes in NOX1-silenced endothelial cell line; assay type: cell-based, mouse
Protocol: Total RNA from treated cells was extracted using RNeasy minikit (Qiagen). Total RNA was reverse-transcribed with the Superscript III first strand RT-PCR kit (Invitrogen). Quantitative real-time PCR was performed using SybrGreen master mix (Applied Biosystems) on Step one plus Real-time PCR machine (Applied Biosystems). Primer sequences are listed in the Materials and Methods S1.
For mouse cells, siRNAs were nucleofected using the Amaxa technology (Lonza). Gene silencing was assessed 48 hours after nucleofection by quantitative RT-PCR. For HUVEC, shRNA vectors (SABiosciences) were nucleofected using Amaxa. Gene silencing was assessed 48 hours after nucleofection by quantitative RT-PCR.

NOX4 = target: T1, NOX4 (Homo sapiens, UniProt Q9NPH5); experiment: NOX inhibition in cell free assay, membranes from cells overexpressing NOX4 (Amplex Red ROS); assay type: biochemical; conditions: cell-free, membranes from NOX4 over-expressing cells
T1 construct: expressed in transfected cells
Protocol: (§1) Membranes from NOX2 expressing PMN cells or from cells overexpressing NOX1 or NOX4 were prepared as previously described. After resuspension in sonication buffer (11% sucrose, 120 mM NaCl, 1 mM EGTA in PBS, pH 7.4 for NOX4-expressing cells) or in relax buffer (10 mM Pipes, 3 mM NaCl, 3.5 mM MgCl2, 0.1 M KCl, pH 7.4), cells were broken by sonication and centrifuged (200 g, 10 min). The supernatant was loaded onto a 17/40% (w/v) discontinuous sucrose gradient and centrifuged (150,000 g for 30 min). Membrane fractions were collected and stored at −80°C. ROS production measurements of membranes expressing different NOX subunits was determined as previously described using the Amplex Red method (Invitrogen).

xanthine oxidase = xanthine oxidase (Homo sapiens, UniProt P47989); experiment: Xanthine oxidase inhibition, concentration-response; assay type: biochemical
NOX2 = target: T2, NOX2 (Homo sapiens, UniProt P04839); experiment: NOX inhibition in cell free assay, membranes from NOX2 expressing PMN cells (Amplex Red ROS); assay type: biochemical; conditions: cell-free, membranes from NOX2 expressing PMN cells
T2 construct: Membranes from NOX2 expressing PMN cells; endogenous in cells; host or cells: PMN cells
T2 sequence (P04839 2-570 limits assumed): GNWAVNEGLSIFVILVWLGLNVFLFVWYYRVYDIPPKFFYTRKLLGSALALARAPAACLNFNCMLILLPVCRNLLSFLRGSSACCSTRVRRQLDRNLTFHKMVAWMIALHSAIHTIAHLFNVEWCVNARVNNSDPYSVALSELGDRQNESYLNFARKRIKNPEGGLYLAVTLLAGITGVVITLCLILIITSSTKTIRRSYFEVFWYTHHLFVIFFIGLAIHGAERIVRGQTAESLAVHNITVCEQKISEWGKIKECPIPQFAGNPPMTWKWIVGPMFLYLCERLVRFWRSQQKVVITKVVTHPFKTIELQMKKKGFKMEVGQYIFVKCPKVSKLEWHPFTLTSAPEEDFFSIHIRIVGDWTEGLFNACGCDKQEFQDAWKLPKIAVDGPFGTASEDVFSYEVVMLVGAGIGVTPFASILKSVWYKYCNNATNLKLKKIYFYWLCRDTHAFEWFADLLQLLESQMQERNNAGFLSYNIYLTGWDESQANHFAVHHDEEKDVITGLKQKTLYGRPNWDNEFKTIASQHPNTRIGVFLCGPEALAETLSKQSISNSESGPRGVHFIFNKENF
T2 sequence (P13498 2-195 partner limits assumed): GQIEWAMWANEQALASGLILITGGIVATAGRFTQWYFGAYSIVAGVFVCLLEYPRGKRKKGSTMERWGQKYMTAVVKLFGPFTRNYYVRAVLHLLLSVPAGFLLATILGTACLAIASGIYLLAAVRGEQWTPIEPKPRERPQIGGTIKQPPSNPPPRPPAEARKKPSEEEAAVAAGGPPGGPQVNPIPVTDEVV
Protocol: as §1

NOX1 = target: T3, NOX1 (Homo sapiens, UniProt Q9Y5S8); experiment: NOX inhibition in cell free assay, membranes from cells overexpressing NOX1 (Amplex Red ROS); assay type: biochemical; conditions: cell-free, membranes from NOX1 over-expressing cells
T3 construct: expressed in transfected cells
T3 sequence (Q9Y5S8 1-564): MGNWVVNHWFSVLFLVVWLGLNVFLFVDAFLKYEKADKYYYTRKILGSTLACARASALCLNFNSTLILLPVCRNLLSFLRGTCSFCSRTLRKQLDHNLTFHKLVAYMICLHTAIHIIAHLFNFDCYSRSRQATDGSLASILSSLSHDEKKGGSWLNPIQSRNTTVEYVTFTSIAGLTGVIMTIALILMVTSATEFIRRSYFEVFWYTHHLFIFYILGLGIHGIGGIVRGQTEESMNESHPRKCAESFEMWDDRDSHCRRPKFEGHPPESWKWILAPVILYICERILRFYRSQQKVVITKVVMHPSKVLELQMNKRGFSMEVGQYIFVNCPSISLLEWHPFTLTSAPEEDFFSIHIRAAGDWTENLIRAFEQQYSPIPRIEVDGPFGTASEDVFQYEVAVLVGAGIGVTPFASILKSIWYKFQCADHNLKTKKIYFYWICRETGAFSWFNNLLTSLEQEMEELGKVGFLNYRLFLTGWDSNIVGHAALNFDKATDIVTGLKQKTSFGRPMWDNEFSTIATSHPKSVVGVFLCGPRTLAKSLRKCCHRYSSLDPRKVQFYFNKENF
T3 sequence (P13498 2-195 partner limits assumed): T2 sequence (P13498 2-195 partner limits assumed)
Protocol: as §1

[4] = tEnd siRNA NOX1 + GW 6471, compared to control cells

T1 sequence (Q9NPH5 whole entry, species assumed, one chain of several): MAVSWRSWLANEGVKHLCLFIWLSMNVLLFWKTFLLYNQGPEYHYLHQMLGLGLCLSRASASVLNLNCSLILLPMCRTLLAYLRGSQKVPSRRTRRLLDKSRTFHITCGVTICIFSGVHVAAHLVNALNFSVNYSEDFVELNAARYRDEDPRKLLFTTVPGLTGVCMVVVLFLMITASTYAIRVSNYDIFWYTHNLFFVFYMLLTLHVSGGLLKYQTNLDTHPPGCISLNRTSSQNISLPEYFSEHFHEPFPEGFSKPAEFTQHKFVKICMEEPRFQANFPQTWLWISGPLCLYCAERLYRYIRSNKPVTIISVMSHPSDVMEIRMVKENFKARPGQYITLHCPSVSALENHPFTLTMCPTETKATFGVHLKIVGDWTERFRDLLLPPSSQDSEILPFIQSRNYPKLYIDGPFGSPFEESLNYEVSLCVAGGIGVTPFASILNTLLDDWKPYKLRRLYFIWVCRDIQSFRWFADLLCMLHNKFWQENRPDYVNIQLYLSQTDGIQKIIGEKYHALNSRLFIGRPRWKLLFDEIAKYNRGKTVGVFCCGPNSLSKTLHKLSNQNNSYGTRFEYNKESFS
Chain of xanthine oxidase (P47989 whole entry, species assumed): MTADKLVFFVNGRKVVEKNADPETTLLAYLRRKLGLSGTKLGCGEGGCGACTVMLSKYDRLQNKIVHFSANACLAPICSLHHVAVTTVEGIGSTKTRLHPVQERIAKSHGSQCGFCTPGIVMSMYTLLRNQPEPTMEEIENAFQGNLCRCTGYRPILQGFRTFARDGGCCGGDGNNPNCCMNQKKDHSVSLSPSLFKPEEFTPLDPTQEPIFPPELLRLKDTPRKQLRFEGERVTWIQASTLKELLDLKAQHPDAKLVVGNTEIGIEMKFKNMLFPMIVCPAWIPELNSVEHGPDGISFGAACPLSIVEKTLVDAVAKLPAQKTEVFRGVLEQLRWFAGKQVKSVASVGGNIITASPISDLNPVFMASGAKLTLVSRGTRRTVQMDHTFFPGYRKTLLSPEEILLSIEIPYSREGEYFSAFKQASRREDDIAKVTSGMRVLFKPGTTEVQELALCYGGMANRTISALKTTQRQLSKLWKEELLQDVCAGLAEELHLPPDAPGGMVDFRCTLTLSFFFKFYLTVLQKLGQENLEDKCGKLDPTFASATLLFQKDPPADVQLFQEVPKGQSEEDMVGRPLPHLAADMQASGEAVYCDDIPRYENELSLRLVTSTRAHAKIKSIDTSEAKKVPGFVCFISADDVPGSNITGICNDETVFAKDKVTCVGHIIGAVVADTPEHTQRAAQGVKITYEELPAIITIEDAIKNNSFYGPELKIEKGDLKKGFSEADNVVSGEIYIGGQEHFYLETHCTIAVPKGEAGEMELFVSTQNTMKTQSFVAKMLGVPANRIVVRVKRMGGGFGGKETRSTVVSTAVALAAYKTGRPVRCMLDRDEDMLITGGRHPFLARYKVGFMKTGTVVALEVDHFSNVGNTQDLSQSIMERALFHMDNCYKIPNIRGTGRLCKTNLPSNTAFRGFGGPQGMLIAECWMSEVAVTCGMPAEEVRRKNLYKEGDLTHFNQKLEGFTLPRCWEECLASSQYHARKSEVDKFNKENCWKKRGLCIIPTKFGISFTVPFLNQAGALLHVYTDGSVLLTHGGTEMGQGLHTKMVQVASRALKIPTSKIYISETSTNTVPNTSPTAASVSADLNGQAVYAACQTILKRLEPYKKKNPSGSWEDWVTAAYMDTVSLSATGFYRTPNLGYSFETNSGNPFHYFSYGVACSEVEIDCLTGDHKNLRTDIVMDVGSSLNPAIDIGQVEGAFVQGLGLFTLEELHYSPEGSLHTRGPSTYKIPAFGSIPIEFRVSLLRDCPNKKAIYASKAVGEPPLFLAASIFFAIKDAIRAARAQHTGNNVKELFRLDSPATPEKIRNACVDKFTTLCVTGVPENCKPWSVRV

Structure (SMILES)	tube formation of NOX1-deficient MLEC (MLEC [1])	deficient nuclear translocation of NF-kB in NOX1-silenced cells [2]	cell migration of NOX1-deficient MLEC (MLEC [3])	PPARα up regulation in NOX1-silenced cells (tEnd siRNA NOX1; NOX1-silenced cells incubated with antagonist, data not shown)	Catalase expression, fold increase or decrease (tEnd siRNA NOX1; [4]) [fold]	GPX3 expression, fold increase or decrease (tEnd siRNA NOX1; [4]) [fold]	MMP-2 expression, fold increase or decrease (tEnd siRNA NOX1; [4]) [fold]	MMP-9 expression, fold increase or decrease (tEnd siRNA NOX1; [4]) [fold]	VCAM-1 expression, fold increase or decrease (tEnd siRNA NOX1; [4]) [fold]	VE-cadherin expression, fold increase or decrease (tEnd siRNA NOX1; [4]) [fold]	VEGF expression, fold increase or decrease (tEnd siRNA NOX1; [4]) [fold]	bFGF expression, fold increase or decrease (tEnd siRNA NOX1; [4]) [fold]	uPAR expression, fold increase or decrease (tEnd siRNA NOX1; [4]) [fold]	Ki (NOX4) [nM]	Ki (xanthine oxidase) [nM]	Ki (NOX2) [nM]	Ki (NOX1) [nM]
CCC(=O)NC[C@H](Cc1ccc(OCCc2nc(-c3ccccc3)oc2C)cc1)N/C(C)=C\C(=O)c1ccc(C(F)(F)F)cc1 [GW6471]	restored	no longer observed	restored	no longer observed	0.92±0.012	0.70±0.01	2.13±0.24	0.47±0.07	0.57±0.18	0.9±0.2	0.68±0.04	0.64±0.25	1.34±0.6	–	–	–	–
c1ccc([I+]c2ccccc2)cc1 [DPI, Diphenyliodonium, reference compound]	–	–	–	–	–	–	–	–	–	–	–	–	–	70	50	70	70 ± 10
